Source: patent US10472607B2, “Culture medium and method for inducing differentiation of pluripotent stem cells into neuroepithelial cells” (National Chung Hsing University, priority 2011, dated 2019)

System: TW1 hESCs
Test: Comparison of additive groups: morphology and Oct4/Nestin immunofluorescence
Assay type: cell-based, human
Conditions: compared to group 3 (BIO + SB431542)
Text: The TW1 hESCs were divided into four groups according to the additives at culture day 3. The detail of the above steps refers to the examples 1 to 3.
Referring to the methods in examples 5 and 6, the protein expressions of Oct4 and Nestin in the each groups and the results were examined and shown in FIG. 9.

Question: How did the “compaction and neural rosettes formation” value turn out when fibroblast growth factor-2 [FGF2] was run?
Answer: further enhanced
